Results on 18 compounds are retold here after patent US20070129379A1 (priority 2005, published 2007).

One may read the IC50 as the concentration that inhibits the measured activity by half.

This assay addresses T1, HIV-integrase (Human immunodeficiency virus type 1 group M subtype B, UniProt P12497).
T1 construct: Recombinant integrase (0.26 ng) was incubated with the beads
In words: HIV-Integrase Inhibition Activity (SPA strand transfer assay). Type of assay: biochemical. As to conditions: recombinant integrase, biotin labeled substrate DNA on SPA beads, P33 labeled target DNA. As for the experimental part: HIV-Integrase Inhibition Activity. To evaluate in-vitro activity against HIV-integrase, 5 pmole of biotin labeled substrate DNA was bound to 100 μg of Streptavidin coated PVT SPA beads (Amersham Pharmacia Biotech). Recombinant integrase (0.26 ng) was incubated with the beads for 90 min at 37° C. Unbound enzyme was removed by washing the complex followed by addition of inhibitors and 0.1 fmol of P33 labeled target DNA. The reaction was stopped by adding EDTA to a final concentration of 10 mM. Samples were counted in TopCountNXT (Packard) and the CPM was used as a measure of integration. The reaction condition was as described in A. Engleman and R. Craige, J. Virol. 69, 5908-5911 (1995). The sequences of substrate and target DNA were described in Nucleic Acid Research 22, 1121-1122 (1994). Activity equal to A refers to a compound having IC50=0.002 to 0.10 μM while B and C denote compounds having IC50=0.1 to 1.0 μM and IC50≧1.0 μM respectively.
Regarding `Cn1c(C2(C)CCCO2)nc(C(=O)NCc2ccc(F)cc2S(C)(=O)=O)c(O)c1=O` (stereo not drawn) [Example 11], the IC50 was in the range of 2 to 100 nM. The value for `Cn1c(C2(OCCO)CCC2)nc(C(=O)NCc2ccc(F)cc2)c(O)c1=O` [Example 12, 5-Hydroxy-2-[1-(2-hydroxy-ethoxy)-cyclobutyl]-1-methyl-6-oxo-1,6-dihydro-pyrimidine-4-carboxylic acid 4-fluoro-benzylamide] was 2 to 100 nM; that for `COCCOC1(c2nc(C(=O)NCc3ccc(F)cc3)c(O)c(=O)n2C)CCC1` [Example 15, N-(4-Fluorobenzyl)-5-hydroxy-2-(1-(2-methoxyethoxy)cyclobutyl)-1-methyl-6-oxo-1,6-dihydropyrimidine-4-carboxamide] was 2 to 100 nM; that for `Cn1c(C2(OCCO)CCC2)nc(C(=O)NCc2ccc(F)cc2-n2cncn2)c(O)c1=O` [Example 13] was 2 to 100 nM. Turning to `COCCOC1(c2nc(C(=O)NCc3ccc(F)cc3S(=O)(=O)N(C)C)c(O)c(=O)n2C)CCC1` [Example 18], the IC50 is 2 to 100 nM.

As for `COC(C)(C)c1nc(C(=O)NCc2ccc(F)c(C)c2)c(O)c(=O)n1C` [Example 2], the concentration for half-maximal inhibition (IC50) lay in the range of 2 to 100 nM. Then `Cn1c(C(C)(C)C)nc(C(=O)NCc2ccc(F)cc2)c(O)c1=O` [Example 4, 2-tert-Butyl-5-hydroxy-1-methyl-6-oxo-1,6-dihydro-pyrimidine-4-carboxylic acid 4-fluoro-benzylamide], with 2 to 100 nM; and `COC(C)(C)c1nc(C(=O)NCc2ccc(F)cc2)c(O)c(=O)n1C` [Example 1, N-(4-Fluorobenzyl)-5-hydroxy-2-(2-methoxypropan-2-yl)-1-methyl-6-oxo-1,6-dihydropyrimidine-4-carboxamide], with 2 to 100 nM; and `COCCOC1(c2nc(C(=O)NCc3ccc(F)cc3-n3cncn3)c(O)c(=O)n2C)CCC1` [Example 16, N-(4-Fluoro-2-(1H-1,2,4-triazol-1-yl)benzyl)-5-hydroxy-2-(1-(2-methoxyethoxy)cyclobut-yl)-1-methyl-6-oxo-1,6-dihydropyrimidine-4-carboxamide], with 2 to 100 nM. The value for `CC(C)(C)c1nc(O)c(O)c(C(=O)NCc2ccc(F)cc2)n1` [Example 3, 2-tert-Butyl-5-hydroxy-6-oxo-1,6-dihydro-pyrimidine-4-carboxylic acid 4-fluoro-benzylamide] was 2 to 100 nM; that for `Cn1c(C2(C)CCCS2)nc(C(=O)NCc2ccc(F)cc2-n2cncn2)c(O)c1=O` (stereo not drawn) [Example 7, N-(4-Fluoro-2-(1H-1,2,4-triazol-1-yl)benzyl)-5-hydroxy-1-methyl-2-(2-methyl-tetrahydrothiophen-2-yl)-6-oxo-1,6-dihydropyrimidine-4-carboxamide] was 2 to 100 nM; that for `COCCOC1(c2nc(C(=O)NCc3ccc(F)cc3S(C)(=O)=O)c(O)c(=O)n2C)CCC1` [Example 17, N-(4-Fluoro-2-(methylsulfonyl)benzyl)-5-hydroxy-2-(1-(2-methoxyethoxy)cyclobutyl)-1-methyl-6-oxo-1,6-dihydropyrimidine-4-carboxamide] was 2 to 100 nM.

Consider `Cn1c(C2(C)CCCS2)nc(C(=O)NCc2ccc(F)cc2S(C)(=O)=O)c(O)c1=O` (stereo not drawn) [Example 8], for which the IC50 lay within 2 to 100 nM. On to `CSCCCCC(C)(C)c1nc(C(=O)NCc2ccc(F)cc2)c(O)c(=O)n1C` [Example 5], for which the IC50 is 2 to 100 nM. Then `Cn1c(C2(C)CCCO2)nc(C(=O)NCc2ccc(F)cc2-n2cncn2)c(O)c1=O` (stereo not drawn) [Example 10], with 2 to 100 nM. Then `CSCCOC1(c2nc(C(=O)NCc3ccc(F)cc3-n3cncn3)c(O)c(=O)n2C)CCC1` [Example 14, N-(4-Fluoro-2-(1H-1,2,4-triazol-1-yl)benzyl)-5-hydroxy-1-methyl-2-(1-(2-(methylthio)-ethoxy)cyclobutyl)-6-oxo-1,6-dihydropyrimidine-4-carboxamide], with 2 to 100 nM; and `Cn1c(C2(C)CCCO2)nc(C(=O)NCc2ccc(F)cc2)c(O)c1=O` (stereo not drawn) [Example 9], with 2 to 100 nM; and `Cn1c(C2(C)CCCS2)nc(C(=O)NCc2ccc(F)cc2)c(O)c1=O` (stereo not drawn) [Example 6, N-(4-Fluorobenzyl)-5-hydroxy-1-methyl-2-(2-methyl-tetrahydrothiophen-2-yl)-6-oxo-1,6-dihydropyrimidine-4-carboxamide], with 2 to 100 nM.
